Results as given in patent US4672036A, “Pure cultures of Kibdelsporangium aridum Shearer gen. nov., sp. nov. ATCC 39323 and mutants thereof” (SmithKline Beckman Corporation, priority 1985, dated 1987).
Converted amounts (≈) assume the structure as drawn. “And” between values parts separate entries of the source, which are not always exact repeats. Equal values may be shown once.

Assays:
[1] = test system: Pseudomonas aeruginosa HH63; format: cell-based; conditions: Table A
[2] = test system: Fusobacterium nucleatum ATCC 25586; format: cell-based; conditions: Table D, Anaerobes
B. fragilis H145 = format: cell-based, Bacteroides fragilis; conditions: Table D, Anaerobes
[3] = test system: B. thetaiotamicron SK & F 3089; format: cell-based; conditions: Table D, Anaerobes
[4] = test system: C. perfringens ATCC 19408; conditions: Table D, Anaerobes
solubility = format: physicochemical
[5] = test system: Listeria monocytogenes SK & F 2255; format: cell-based; conditions: Table A
[6] = test system: E. coli 12140 (SK & F 809); format: cell-based; conditions: Table A
rumen in vitro model [7] = experiment: rumen in vitro model (growth promotant activity); design: species or system steer
rumen in vitro model [8] = experiment: rumen in vitro model (growth promotant activity); design: species or system steer; remark: listed apart in the source
Procedure: The protocol for the rumen in vitro model is analogous to the protocol for the swine in vitro model with the following modifications:
(1) A 400 kg steer is surgically prepared with a rumen cannula.
(2) The animal is fed one time a day with the following ration:
(3) Manipulation of VFA production is described as the production ratio of propionate as a percentage of total VFA produced.
(4) Sampling of the material, via the cannula, is at 120 minutes post feeding.

[9] = test system: Serratia marcesens ATCC 13880; format: cell-based; conditions: Table A
B. fragilis SK & F 3060 = format: cell-based, Bacteroides fragilis; conditions: Table D, Anaerobes
[10] = test system: Enterobacter cloacae HH31254; format: cell-based; conditions: Table A
Providencia SK & F 276 = format: cell-based; conditions: Table A
[11] = test system: Kleb. pneumoniae 4200 (SK & F 798); format: cell-based; conditions: Table A
B. loeochii SK & F 3087 = format: cell-based; conditions: Table D, Anaerobes
[12] = test system: Proteus morgani SK & F 179; format: cell-based; conditions: Table A
[13] = test system: Proteus mirabilis SK & F 444; format: cell-based; conditions: Table A
C. perfringens MCP-2 = conditions: Table D, Anaerobes
[14] = test system: Staph. aureus SK & F 2613; format: cell-based; conditions: Table B, Methicillin Sensitive
[15] = test system: Salmonella gallinarum BC595; conditions: Table A
Swine in vitro model = experiment: swine in vitro model (growth promotant activity)
[16] = test system: Clostridium perfringens MCP-1; conditions: Table D, Anaerobes
[17] = test system: Bacteroides fragilis ATCC 25285; format: cell-based; conditions: Table D, Anaerobes
Strep. faecilis HH34358 = format: cell-based; conditions: Table A

CN[C@H]1C(=O)N[C@H]2C(=O)N[C@H](C(=O)N[C@H]3C(=O)N[C@H]4C(=O)N[C@H](C(=O)N[C@H](C(=O)O)c5cc(O)cc(O[C@H]6O[C@H](CO)[C@@H](O)[C@H](O)[C@@H]6O)c5-c5cc4ccc5O)[C@H](O)c4cc(Cl)c(c(Cl)c4)Oc4cc3cc(c4O[C@@H]3O[C@H](C(=O)O)[C@@H](O)[C@H](O)[C@H]3NC(=O)CCCCCCCC(C)C)Oc3ccc(cc3Cl)[C@H]2O)c2cc(cc(O)c2Cl)Oc2cc1ccc2O [AAD 216B]
MIC [1]: > 100 µg/mL
MIC [2]: 32 µg/mL (≈ 17.7 µM)
MIC (B. fragilis H145): 16 µg/mL (≈ 8.87 µM)
MIC [3]: 32 µg/mL (≈ 17.7 µM)
MIC [4]: 0.125 µg/mL (≈ 0.0693 µM)
solubility (solubility; H2O, methanol, dimethylsulfoxide, dimethylformamide): soluble
solubility (solubility; ethanol, acetonitrile, acetone, diethylether, aliphatic hydrocarbons): insoluble
MIC [5]: 0.4 µg/mL (≈ 0.222 µM)
MIC [6]: > 100 µg/mL
LYS (lysine) (rumen in vitro model [7]): 124 % Control and 107 % Control and 103 % Control
VFA (total of volatile fatty acids) (rumen in vitro model [8]): 111 % Control and 121 % Control
MIC [9]: > 100 µg/mL
MIC (B. fragilis SK & F 3060): 16 µg/mL (≈ 8.87 µM)
MIC [10]: > 100 µg/mL
MIC (Providencia SK & F 276): > 100 µg/mL
MIC [11]: > 100 µg/mL
MIC (B. loeochii SK & F 3087): 16 µg/mL (≈ 8.87 µM)
MIC [12]: > 100 µg/mL
MIC [13]: > 100 µg/mL
MIC (C. perfringens MCP-2): 0.125 µg/mL (≈ 0.0693 µM)
MIC [14]: 1.6 µg/mL (≈ 0.887 µM)
MIC [15]: > 100 µg/mL
GLU (glucose) (Swine in vitro model): 190 % Control and 184 % Control and 97 % Control
LYS (lysine) (Swine in vitro model): 50 % Control and 55 % Control
MIC [16]: 0.125 µg/mL (≈ 0.0693 µM)
MIC [17]: 32 µg/mL (≈ 17.7 µM)
MIC (Strep. faecilis HH34358): 0.4 µg/mL (≈ 0.222 µM)
